Test results from patent US20110263862A1, “PIPERIDINE DERIVATIVE, PIPERAZINE DERIVATIVE AND AGENT FOR TREATMENT OF DISEASE INVOLVING CENTRAL NERVOUS SYSTEM DISORDERS” (M'S Science Corporation, priority 2008, published 2011).

Assays:
sigma receptor = molecular target: T1, sigma receptor (Cavia porcellus, UniProt Q60492); test: Evaluation of affinity to sigma receptors ([3H](+)-pentazocine receptor binding experiment); design: species or system guinea pig; settings: membrane preparation from whole brain of guinea pigs, 25° C., 60 minutes, Dixon plot
T1 construct: A membrane preparation as a sigma receptor obtained from the whole brain of guinea pigs; from tissue; host or cells: guinea pig whole brain membrane preparation
Method: A membrane preparation as a sigma receptor obtained from the whole brain of guinea pigs was used as an assay system; [^3H] (+)-pentazocine was used as a radioactive ligand; (+)-pentazocine was used as a positive substance; and 50 mM Tris hydrochloric acid buffer (pH 7.4) was used as a buffer.
The measurement of the following radioactivity was performed according to a common method after the binding reaction had been carried out at 25° C. for 60 minutes.
The inhibition rate was determined by the equation of “100−binding rate”. The binding rate is represented by the following equation:
The IC50 of the test substance was calculated from a regression equation to the dose-response curve. That is, the ratio y=(B−N)/(B0−N) wherein a value of (B−N) is a specific binding radioactivity in the presence of a test substance, and a value of (B0−N) is a specific binding radioactivity in the absence of a test substance was first subjected to logit conversion and applied to a logit-log model plotted against the common logarithm of the test substance concentration to create a dose-response curve. […] The regression equation to the dose-response curve used is as follows:
wherein Y=logity=ln(y/(1−y), X=log x, and a and b are each a constant, provided that x is a solute concentration of a test substance.
Then, for each concentration of the positive substance, the reaction rate was measured while changing the concentration of the test substance in a range including the IC50 to create the Dixon plot, and the Ki value was calculated from the test substance concentration giving an intersection of these straight lines.

[1] = system: rat cerebral cortex neural cells; test: Evaluation of neurite outgrowth-promoting activity in central neural cells; type: cell-based; settings: 48 hours after addition, longest neurite length 60 μm or more, mean±standard error, control 18.0 ± 1.6
Method: The neurite outgrowth-promoting effect of the rat cerebral cortex neural cells on test substances was evaluated using the following method. The cerebral cortex neural cells were isolated from Wistar rats on the 18th day of pregnancy according to the method of Springer Neuroscience Lab Manual. That is, under ether anesthesia, a fetal rat was removed from the uterus of a pregnant rat on day 18, and transferred into a petri dish containing HBSS (manufactured by Gibco, Inc.) on ice. The brain was subdivided into three pieces under a stereoscopic microscope to cut out the cerebral cortex. The cerebral cortex that had been cut out was dispersed with a neural cell dispersion solution (manufactured by Sumitomo Bakelite Co., Ltd.) to prepare rat cerebral cortex cells.
The resulting cerebral cortex cells were subjected to cell culture. Neurobasal medium (manufactured by Gibco, Inc.) supplemented with B27 Supplement (manufactured by Gibco, Inc.; Fin. 2% v/v), L-glutamine (manufactured by IBCO company; Fin. 0.5 mM) and GlutaMax I (manufactured by Gibco, Inc.; Fin. 0.5 mM) was used as the culture medium. The culture conditions were as follows: 5% CO2, 95% air, 100% humidity, and 37° C. The cells were inoculated to polylysine-coated 8-well slides (manufactured by IWAKI company) so as to have about 2×10^4 cells/well.
Compounds (1) to (6) were added as respective test substances (final concentrations: […] and 1.0 μM) to the culture solution at about 3 hours after the cell inoculation, and the culture solution with no additives was used as a control.
At 48 hours after the addition of the compounds, the cells were fixed at room temperature for about 30 minutes using 4% paraformaldehyde (manufactured by Wako Pure Chemical Industries), and incubated with an anti-α-Tublin antibody (Anti-α-Tubulin Alexa Fluor 488 conjugate) recognizing a microtubule protein, at room temperature for one hour. After washing, the nucleus of the whole cell was stained with a nucleic acid-staining agent DAPI. The cells were observed under a fluorescence microscope at a magnification of 20 times. The stained cell image and the nuclear staining image in the same field of vision were imported into a computer as the image. Using an image analysis software (MethaMorph (registered trademark), Molecular Devises), the image imported into the computer, was used to measure the “longest neurite length” that was the length of the longest neurite of individual cell in each field of vision. A cell having a length of the “longest neurite length” of 60 μm or more is defined as a “neurite forming cell” and the neurite forming activity was evaluated by the ratio of the “neurite forming cell” occupied in the number of the cells in the same field of vision. In other words, such evaluation was performed by determining the rate of the neurite forming cells using the following equation:
Rate of neurite forming cells=[Number of neurite forming cells/Number of total cells in the same field of vision]×100
Each numerical value represents mean±standard error.

T1 sequence (Q60492 whole entry): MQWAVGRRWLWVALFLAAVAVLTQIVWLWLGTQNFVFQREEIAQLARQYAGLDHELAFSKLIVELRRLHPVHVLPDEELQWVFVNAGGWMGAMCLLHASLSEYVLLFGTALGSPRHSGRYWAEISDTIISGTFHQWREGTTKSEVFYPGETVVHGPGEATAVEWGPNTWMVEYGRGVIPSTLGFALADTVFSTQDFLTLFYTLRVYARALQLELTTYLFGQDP

SMILES	Ki (sigma receptor) [nM]	Neurite outgrowth-promoting activity (rate of neurite forming cells) ([1]; 0.3 μM) [%]	Neurite outgrowth-promoting activity (rate of neurite forming cells) ([1]; 1.0 μM) [%]
c1ccc(CN2CCN(C3CCCCC3)CC2)cc1 [Compound (1), 1-benzyl-4-cyclohexylpiperazine]	6.5	55.2 ± 1.5	54.6 ± 1.5
c1ccc(CCN2CCN(C3CCCCC3)CC2)cc1 [Compound (2), 1-(2-phenylethyl)-4-cyclohexylpiperazine]	6	55.7 ± 2.4	55.1 ± 2.3
c1ccc(CCCN2CCN(C3CCCCC3)CC2)cc1 [Compound (3), 1-(3-phenylpropyl)-4-cyclohexylpiperazine]	6.1	49.6 ± 2.7	58.4 ± 2.8
c1ccc(CC2CCN(C3CCCCC3)CC2)cc1 [Compound (4), 1-cyclohexyl-4-benzylpiperidine]	7	50.7 ± 2.7	51.1 ± 2.9
c1ccc(CCC2CCN(C3CCCCC3)CC2)cc1 [Compound (5), 1-cyclohexyl-4-(2-phenylethyl)piperidine]	3.9	51.2 ± 2.0	48.9 ± 1.5
c1ccc(CCCC2CCN(C3CCCCC3)CC2)cc1 [Compound (6), 1-cyclohexyl-4-(3-phenylpropyl)piperidine]	2.1	54.2 ± 1.7	46.0 ± 2.4
COc1ccc(CCN2CCN(CCCc3ccccc3)CC2)cc1OC [Reference compound, reference compound]	–	44.6 ± 2.2	58.4 ± 1.8
